# Where two headings read alike, the source gives them in different places.
# Columns and labels:
# CAMKKα = CAMKKα (Homo sapiens, UniProt Q8N5S9); experiment: Kinase screen: CAMKKa assay; assay type: biochemical; details: read-out: Mean Remaining Enzyme Activity (%)
# Procedure: (§1) Generally, the same procedure was used for all assays. Since the total assay volume was 25.5 microliters, 0.5 microliters of inhibitors at 51× assay concentration were added to the plates before any other addition.
# (§2) The basic procedure was to add 0.5 microliters inhibitor/control in DMSO to plate. Fifteen microliters of enzyme/substrate/buffer mix were added and incubated for 5 min. Ten microliters MgATP at the relevant concentration were added and incubated for 30 min. The assay was stopped by adding 5 microliters of 3% orthophosphoric acid. The assay was transferred to a p81 filter plate and read in a scintillation counter of 30 sec/well. Note that this assay procedure was not followed for MKK1, which instead involved a two-step assay, and PKC alpha, which required the addition of lipid vesicles.
# CAMKKa assay: 5-20 mU of CAMKKa (diluted in 50 mM Tris (pH 7.5), 0.1 mM EGTA, 1 mg/ml BSA, 0.1%, b-Mercaptoethanol) was assayed against substrate peptide ([…]) (SEQ ID NO: 31) in a final volume of 25.5 μl containing 50 mM Tris (pH 7.5), 0.1 mM EGTA, 0.5 mM CaCl2, 0.3 μM calmodulin, 0.1%, b-Mercaptoethanol, 300 μM substrate peptide, 10 mM magnesium acetate and 0.02 mM [33P-g-ATP] (500-1000 cpm/pmole) and incubated for 30 mins at room temperature. Assays were stopped by addition of 5 μl of 0.5M (3%) orthophosphoric acid. […]
# MAPKAP-K3 = MAPKAP-K3 (Homo sapiens, UniProt Q16644); experiment: Kinase screen: MAPKAP-K3 assay; assay type: biochemical; details: read-out: Mean Remaining Enzyme Activity (%)
# Chain of MAPKAP-K3 (Q16644 whole entry, species assumed): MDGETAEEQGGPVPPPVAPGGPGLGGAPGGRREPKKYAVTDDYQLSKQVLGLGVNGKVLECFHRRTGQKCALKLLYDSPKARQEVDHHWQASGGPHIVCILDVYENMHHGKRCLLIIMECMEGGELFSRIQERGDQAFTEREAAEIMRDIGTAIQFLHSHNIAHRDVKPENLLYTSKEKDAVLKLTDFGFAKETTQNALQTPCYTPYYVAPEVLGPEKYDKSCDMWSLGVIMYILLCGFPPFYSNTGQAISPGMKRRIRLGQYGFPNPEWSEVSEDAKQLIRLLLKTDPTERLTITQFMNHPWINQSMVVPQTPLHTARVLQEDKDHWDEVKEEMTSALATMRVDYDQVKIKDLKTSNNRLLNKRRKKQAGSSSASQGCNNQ
# Procedure: as §1, §2
# MAPKAP-K3 assay: 5-20 mU of MAPKAP-K3 (diluted in 50 mM Tris (pH 7.5), 0.1 mM EGTA, 1 mg/ml BSA, 0.1%, b-Mercaptoethanol) was assayed against substrate peptide ([…]) (SEQ ID NO: 3) in a final volume of 25.5 μl containing 50 mM Tris (pH 7.5), 0.1 mM EGTA, 0.1%, b-Mercaptoethanol, 30 μM substrate peptide, 10 mM magnesium acetate and 0.02 mM [33P-g-ATP] (500-1000 cpm/pmole) and incubated for 30 mins at room temperature. Assays were stopped by addition of 5 μl of 0.5M (3%) orthophosphoric acid. Assays were harvested onto P81 Unifilter plates using a wash buffer of 50 mM orthophosphoric acid.
# HS 578T = experiment: cells; details: Homo sapiens
# MALME-3M = details: for Mean Optical Densities / Percent Growth: MALME-3M
# NCI-H23 = experiment: cells; details: Homo sapiens
# SF-268 = experiment: cells; details: Homo sapiens
# ACHN = experiment: cells; details: Homo sapiens
# [1] = OVCAR-3, log10 concentration −4.0
# [2] = OVCAR-3, log10 concentration −5.0
# [3] = OVCAR-3, log10 concentration −6.0
# [4] = OVCAR-3, log10 concentration −7.0
# [5] = OVCAR-3, log10 concentration −8.0
# [6] = SW-620, log10 concentration −4.0
# [7] = SW-620, log10 concentration −5.0
# [8] = SW-620, log10 concentration −7.0
# [9] = SW-620, log10 concentration −8.0
smiles,measurement,setting,value
CC(C)c1cnn2c(NCc3ccccc3)cc(NCCCCCCCN)nc12 [BS-181],remaining activity at 10 µM,CAMKKα,57%
same,remaining activity at 10 µM,MAPKAP-K3,119%
"CC(C)c1cnn2c(NCc3ccccc3)cc(N[C@@H](CO)[C@H](O)CO)nc12 [ICEC0318, (3S)-3-(7-(Benzylamino)-3-isopropylpyrazolo[1,5-a]pyrimidin-5-ylamino)butane-1,2,4-triol]",GI50,"OVCAR-3; Homo sapiens, OVCAR-3",335 nM
same,CC50,"OVCAR-3; Homo sapiens, OVCAR-3, read-out: LC50",> 100000 nM
same,TGI,OVCAR-3; OVCAR-3 (Ovarian Cancer),>1.00E−4
same,Mean Optical Densities,OVCAR-3; [1],0.313
same,Percent Growth,OVCAR-3; [1],9%
same,Mean Optical Densities,OVCAR-3; [2],0.317
same,Percent Growth,OVCAR-3; [2],10%
same,Mean Optical Densities,OVCAR-3; [3],0.306
same,Percent Growth,OVCAR-3; [3],8%
same,Mean Optical Densities,OVCAR-3; [4],0.700
same,Percent Growth,OVCAR-3; [4],97%
same,Mean Optical Densities,OVCAR-3; [5],0.795
same,Percent Growth,OVCAR-3; [5],118%
same,TGI,SW-620; SW-620 (Colon Cancer),1.00E−6
same,Mean Optical Densities,SW-620; [6],0.101
same,Percent Growth,SW-620; [6],−29%
same,Mean Optical Densities,SW-620; [7],0.125
same,Percent Growth,SW-620; [7],−12%
same,Mean Optical Densities,"SW-620; SW-620, log10 concentration −6.0",0.412
same,Mean Optical Densities,SW-620; [8],0.782
same,Percent Growth,SW-620; [8],92%
same,Mean Optical Densities,SW-620; [9],0.839
same,Percent Growth,SW-620; [9],100%
same,GI50,HS 578T,276 nM
same,CC50,HS 578T; read-out: LC50,> 100000 nM
same,TGI,M14; M14 (Melanoma),1.00E−6
same,Mean Optical Densities,"M14; M14, log10 concentration −4.0",0.125
same,Percent Growth,"M14; M14, log10 concentration −4.0",−62%
same,Mean Optical Densities,"M14; M14, log10 concentration −5.0",0.246
same,Percent Growth,"M14; M14, log10 concentration −5.0",−26%
same,Mean Optical Densities,"M14; M14, log10 concentration −6.0",0.333
same,Mean Optical Densities,"M14; M14, log10 concentration −7.0",1.032
same,Percent Growth,"M14; M14, log10 concentration −7.0",97%
same,Mean Optical Densities,"M14; M14, log10 concentration −8.0",1.074
same,Percent Growth,"M14; M14, log10 concentration −8.0",103%
same,TGI,MALME-3M; MALME-3M (Melanoma),1.09E−6
same,Mean Optical Densities,MALME-3M; log10 concentration −4.0,0.398
same,Percent Growth,MALME-3M; log10 concentration −4.0,−29%
same,Mean Optical Densities,MALME-3M; log10 concentration −5.0,0.458
same,Percent Growth,MALME-3M; log10 concentration −5.0,−19%
same,Mean Optical Densities,MALME-3M; log10 concentration −6.0,0.565
same,Percent Growth,MALME-3M; log10 concentration −6.0,1%
same,Mean Optical Densities,MALME-3M; log10 concentration −7.0,1.008
same,Percent Growth,MALME-3M; log10 concentration −7.0,126%
same,Mean Optical Densities,MALME-3M; log10 concentration −8.0,0.958
same,Percent Growth,MALME-3M; log10 concentration −8.0,112%
same,GI50,NCI-H23; NCI-H23,260 nM
same,CC50,"NCI-H23; NCI-H23, read-out: LC50",> 100000 nM
same,GI50,SF-268; SF-268,326 nM
same,CC50,"SF-268; SF-268, read-out: LC50",> 100000 nM
same,GI50,ACHN,233 nM
same,CC50,ACHN; read-out: LC50,> 100000 nM
